Measured values as given in ChEMBL document CHEMBL1130271, “Synthesis and pharmacological evaluation of N-(2,5-disubstituted phenyl)-N'-(3-substituted phenyl)-N'-methylguanidines as N-methyl-D-aspartate receptor ion-channel blockers” (J Med Chem, 1997).
Counter-ions that a name gives are not always drawn.

Molecular target: Glutamate NMDA receptor
Experiment: In vitro radioligand binding assay for the N-methyl-D-aspartate glutamate receptor is performed using [3H]MK-801 and rat brain membrane suspensions

SMILES | Ki
CCc1cccc(N(C)C(=N)N(C)c2cc(CC)ccc2Cl)c1 | 111 nM
CCc1cccc(N(C)C(=N)Nc2cccc(Cl)c2Cl)c1 | 116 nM
CCc1cccc(NC(=N)Nc2ccc(Cl)cc2Cl)c1 | 140 nM
CCc1cccc(NC(=N)Nc2cc(C)cc(CC)c2Cl)c1 | 77 nM
CCc1cccc(N(C)C(=N)N(C)c2cc(Cl)ccc2Cl)c1 | 72 nM
CCc1cccc(NC(=N)N(C)c2cc(CC)ccc2Cl)c1 | 65 nM
CCc1cccc(N(C)C(=N)Nc2cc(CC)cc(CC)c2F)c1 | 97 nM
CCc1cccc(N(C)C(=N)Nc2ccc(Cl)c(Cl)c2)c1 | 1280 nM
CCc1cccc(NC(=N)Nc2c(Cl)cccc2Cl)c1 | 133 nM
CCc1cccc(NC(=N)Nc2ccccc2CC)c1 | 350 nM
CCc1cccc(N(C)C(=N)N(C)c2cc(Br)ccc2Br)c1 | 27 nM
CCc1cccc(N(C)C(=N)Nc2cccc(SC)c2)c1 | 6.4 nM
CCc1cccc(NC(=N)Nc2ccccc2C)c1 | 768 nM
CCc1cccc(N(C)C(N)=Nc2cccc3ccccc23)c1 [APTIGANEL HYDROCHLORIDE] | 29 nM
CCc1cccc(N(C)C(=N)Nc2ccccc2Cl)c1 | 386 nM
CCc1cccc(NC(=N)Nc2cc(SC)cc(CC)c2Cl)c1 | 11.8 nM
CCc1cccc(NC(=N)Nc2cc(Cl)ccc2Cl)c1 | 68 nM
CCc1cccc(N(C)C(=N)Nc2cc(C)cc(CC)c2Cl)c1 | 78 nM
CCc1cccc(NC(=N)Nc2cc(Cl)cc(Cl)c2)c1 | 115 nM

SMILES | Ki
CCc1cccc(N(C)C(=N)Nc2ccccc2I)c1 | 101 nM
CCc1cccc(NC(=N)Nc2cccc(CC)c2)c1 | 129 nM
CCc1cccc(NC(=N)Nc2ccc(Cl)c(Cl)c2)c1 | 204 nM
CCc1cccc(NC(=N)Nc2cccc(Cl)c2Cl)c1 | 156 nM
CCc1cccc(N(C)C(=N)Nc2cccc(Br)c2)c1 | 81 nM
CCc1cccc(N(C)C(=N)Nc2cccc(Cl)c2)c1 | 497 nM
CCc1cccc(NC(=N)Nc2cccc(Br)c2)c1 | 51 nM
CCc1cccc(NC(=N)Nc2ccccc2Cl)c1 | 249 nM
CCc1cccc(NC(=N)Nc2cc(CC)cc(CC)c2)c1 | 129 nM
CCc1cccc(N(C)C(=N)Nc2cc(Cl)ccc2Cl)c1 | 65 nM
CCc1cccc(NC(=N)Nc2cc(CC)cc(CC)c2Br)c1 | 29 nM
CCc1cccc(N(C)C(=N)Nc2ccccc2Br)c1 | 265 nM
CCc1cccc(N(C)C(=N)Nc2ccccc2C(C)C)c1 | 564 nM
CCc1cccc(NC(=N)Nc2ccc(Cl)cc2)c1 | 738 nM
CCc1cccc(NC(=N)Nc2ccccc2C(C)C)c1 | 230 nM
CCc1cccc(NC(=N)Nc2cccc(Cl)c2)c1 | 112 nM
CCc1cccc(N(C)C(=N)Nc2ccc(Cl)cc2)c1 | 3340 nM
CCc1cccc(NC(=N)Nc2cc(CC)cc(CC)c2F)c1 | 50 nM

Molecular target: not listed separately
Experiment: Binding assay for the sigma receptor sites is performed by utilizing [3H]N,N-di-o-tolylguanidine ([3H]DTG) and guinea pig brain membrane suspensions

SMILES | IC50
CCc1cccc(N(C)C(N)=Nc2cccc3ccccc23)c1 [APTIGANEL HYDROCHLORIDE] | 2540 nM
CCc1cccc(NC(=N)N(C)c2cccc(CC)c2)c1 | 82 nM
